Where a name gives a salt, the structure may show the parent alone.
What was measured:
[1] = test system: super sensitive Gram-negative Escherichia coli (E. coli) BAS849; experiment: Antibacterial activity, microbroth dilution MIC, E. coli BAS849; assay type: cell-based; settings: Escherichia coli; E. coli BAS849, microbroth dilution; read-out: MIC, BAS849
[2] = test system: control Gram-negative E. coli 25922 strain; experiment: Antibacterial activity, microbroth dilution MIC, E. coli 25922; assay type: cell-based, Escherichia coli; settings: Escherichia coli; E. coli 25922, microbroth dilution; read-out: MIC, 25922
[3] = test system: Gram-positive Staphylococcus aureus (S. aureus) 29213; experiment: Antibacterial activity, microbroth dilution MIC, S. aureus 29213; assay type: cell-based; settings: Staphylococcus aureus; S. aureus 29213, microbroth dilution; read-out: MIC, 29213
[4] = test system: quinolone resistant E. coli LZ3111; experiment: Antibacterial activity, MIC, quinolone resistant E. coli LZ3111; assay type: cell-based, Escherichia coli; settings: Escherichia coli, read-out: MIC, LZ3111
Text: (§1) The antibacterial activity from a microbroth dilution method may be presented as the minimum inhibitory concentration (MIC in […]). The MIC value is the lowest concentration of a drug which prevents macroscopically visible bacterial growth under test conditions.
Mutations in these regions are known to confer a high level resistance to the quinolone class of antibiotics.

[5] = test system: E. coli ELZ4251 (MDR clinical isolate); experiment: Antibacterial activity, MIC, MDR E. coli ELZ4251; assay type: cell-based, Escherichia coli; settings: E. coli ELZ4251, MDR clinical isolate; hydrochloride
[6] = test system: Acinetobacter baumannii (A. baumannii) BAA747; experiment: Antibacterial activity, MIC, A. baumannii BAA747; assay type: cell-based; settings: Acinetobacter baumannii; A. baumannii BAA747; read-out: MIC BAA747
[7] = test system: Klebsiella pneumoniae (K. pneumoniae) 35657; experiment: Antibacterial activity, MIC, K. pneumoniae 35657; assay type: cell-based; settings: Klebsiella pneumoniae
[8] = test system: resistant A. baumannii MXX2240 (MDR clinical isolate); experiment: Antibacterial activity, MIC, resistant A. baumannii MXX2240; assay type: cell-based, Acinetobacter baumannii; settings: resistant A. baumannii MMX2240, MDR clinical isolate; hydrochloride
[9] = test system: resistant K. pneumoniae MXX1232 (MDR clinical isolate); experiment: Antibacterial activity, MIC, resistant K. pneumoniae MXX1232; assay type: cell-based, Klebsiella pneumoniae; settings: Klebsiella pneumoniae; resistant K. pneumoniae MMX1232, MDR clinical isolate; read-out: MIC MMX1232
[10] = test system: Pseudomonas aeruginosa (P. aeruginosa) 27853; experiment: Antibacterial activity, MIC, P. aeruginosa 27853; assay type: cell-based; settings: P. aeruginosa 27853; hydrochloride
Text: as §1
Antibacterial activity of test compounds against the Gram-negative bacterium Pseudomonas aeruginosa (P. aeruginosa) 27853 is shown in Table 5.

[11] = test system: Moraxella catarrhalis (M. catarrhalis) 25238; experiment: Antibacterial activity, MIC, M. catarrhalis 25238; assay type: cell-based; settings: M. catarrhalis 25238; hydrochloride
[12] = test system: various organisms; experiment: Microdilution checkerboard method, combination with ciprofloxacin (MIC and FIC); assay type: cell-based; settings: single agent

`CCc1c(-c2ccc(N3C[C@@H]4[C@@H](N)[C@@H]4C3)cc2)[nH]c(=O)c(C(=O)O)c1O` [Cpd 269, 6-{4-[(1R,5S,6s)-6-amino-3-azabicyclo[3.1.0]hex-3-yl]phenyl}-5-ethyl-4-hydroxy-2-oxo-1,2-dihydropyridine-3-carboxylic acid hydrochloride] gave an MIC [1] of less than 1 µg/mL, an MIC [2] of less than 1 µg/mL and an MIC [3] of 3.5 to 12.5 µg/mL. For the same compound, the MIC [4] was 3.5 to 12.5 µg/mL, the “MIC ELZ4251” value [5] was “* (an MIC value between >12.5 μg/mL and ≦150 μg/mL is indicated by a single star (*))” and the MIC [6] was less than 1 µg/mL. The MIC [7] was less than 1 µg/mL, the “MIC MMX2240” value [8] was “** (an MIC value between >3.5 μg/mL and ≦12.5 μg/mL is indicated by two stars (**))” and the MIC [9] was 12.5 to 150 µg/mL. For the same compound, the “MIC 27853” value [10] was “*** (an MIC value between >1.0 μg/mL and ≦3.5 μg/mL is indicated by three stars (***))”, the “MIC 25238” value [11] was “**** (an MIC value of ≦1.0 μg/mL is indicated by four stars (****))” and the MIC ([12]; Acinetobacter baumannii, A. baumannii (MDR)) was 12.5 µg/mL. For the same compound, the MIC ([12]; Acinetobacter baumannii, BAA747, A. baumannii BAA747) was 0.39 µg/mL, the MIC ([12]; Escherichia coli, E. coli 3111) was 3.1 µg/mL and the MIC ([12]; Escherichia coli, E. coli 25922) was 0.19 µg/mL. It also gave an MIC ([12]; Klebsiella pneumoniae, K. pneumoniae 35657) of 0.39 µg/mL, an MIC ([12]; Pseudomonas aeruginosa, P. aeruginosa 27853) of 1.6 µg/mL and an MIC ([12]; Staphylococcus aureus, S. aureus 29213) of 3.12 µg/mL. The MIC ([12]; Staphylococcus aureus, S. aureus (MDR)) was 6.2 µg/mL.

From US9650395B2, “Antibacterial compounds and methods for use” (PTC Therapeutics, Inc., priority 2011, dated 2017)
